Experimental data from patent publication US20130178441A1, “Methods for Extending Progression-Free Survival using 10-Propargyl-10-Deazaaminopterin” (ALLOS THERAPEUTICS, INC., priority 2010, published 2013).
Several values for one entry are separate records, joined by “and”; a condition that tells them apart may be missing. Identical values can stand only once. Entries after “also recorded” stand apart in the source; their conditions may differ. Marks after values point to notes of the source that are not given here.

Legend:
relapsed/refractory PTCL = assay: PROPEL subset analysis: second-line pralatrexate after first-line CHOP only (N=15) vs other patients (n=94); format: in vivo, human
Description: The most common therapy for first-line treatment of PTCL is the multi-agent combination cyclophosphamide/doxorubicin/vincristine prednisone (CHOP). However, most patients progress within 6-12 months, and there is no standard of care for second-line treatment of these patients. Thus optimal second-line approaches are needed and agents based on a unique mechanism of action warrant study. This analysis was conducted to determine if pralatrexate offered a beneficial second-line treatment option. […] All patients in the PROPEL study had received at least 1 prior therapy for PTCL. […] The efficacy in these patients was compared with the remainder of the patient population who had not received CHOP as their only therapy for PTCL prior to pralatrexate (n=94).

[1] = system: relapsed or refractory peripheral T-cell lymphoma (PTCL); assay: PROPEL (PDX-008) pivotal trial of pralatrexate, overall population (N=109); format: in vivo, human
From the text: Pralatrexate was approved under the provisions of accelerated approval is the United States for the treatment of patients with relapsed/refractory PTCL based on the results of the pivotal trial PROPEL (Pralatrexate in Patients with Relapsed Or Refractory Peripheral T-cell Lymphoma). The primary endpoint, objective response rate (ORR) by independent central review using International Workshop Criteria, was 29% (32/109), including 11% complete response/complete response unconfirmed (CR/CRu) with a median duration of response of 10.1 months. The ORR by investigator assessment was 39% (43/109), including 18% CR/CRu.
The prognosis of aggressive PTCL is dismal. Investigators have developed salvage regimens attempting to improve outcomes for patients with relapsed or refractory disease. One such regimen frequently used is ifosfamide, carboplatin, and etoposide (ICE) or ICE-based regimens (eg, and rituximab-ICE [RICE] and dexamethasome-ICE [DICE]). These regimens can have response rates approaching 70% and patients may proceed to a stem cell transplant, yet most patients tend to relapse quickly (Horwitz et al Blood 2005; 106:a2679). Thus, optimal approaches for patients with relapsed or refractory disease are needed, and agents based on a unique mechanism of action warrant study. This analysis was conducted to determine if pralatrexate offered a beneficial treatment option for patients after treatment with an ICE/RICE/DICE regimen. Methods: Pralatrexate was administered via intravenous push over 3 to 5 minutes at 30 mg/m^2/week for six weeks in 7-week cycles with concurrent 1 mg vitamin B12 intramuscular every 8 to 10 weeks and folic acid 1.0 to 1.25 mg by mouth once daily. 109 patients were treated with pralatrexate in the PROPEL study. All patients in the PROPEL study had received at least 1 prior therapy for PTCL. A subset of 20 patients had received ICE, RICE or DICE at some point prior to treatment with pralatrexate. The efficacy in these patients was compared to the remainder of the patient population who had not received ICE/RICE/DICE as a therapy for PTCL prior to pralatrexate (n=89). The patient population that previously received an ICE-based regimen was heavily pretreated with am edian of 3 prior systemic regimens (range, 2-11). The median age was 45 years, a younger patient population compared with the overall PROPEL population (59 years).
The pivotal PROPEL study of pralatrexate (FOLOTYN®) in patients with relapsed or refractory PTCL reported a rapid response to treatment in a heavily pretreated patient population. The majority of patients (63% of responders) responded by their first assessment at 7 weeks (the end of cycle 1). The present analysis assessed if there were any unique characteristics of patients who were unable to complete the first cycle of therapy and to assess the outcomes of patients who received ≧1 or ≧2 cycles of pralatrexate. Pralatrexate, a folate analog targeting dihydrofolate reductase, was approved in the United States for treatment of relapsed or refractory PTCL based on the PROPEL study. Methods: In PROPEL, patients received 30 mg/m^2 pralatrexate once weekly for 6 weeks in successive 7-week cycles. […] Cycle completion was determined receiving ≧1 dose in the following cycle. Thus, the subgroup of patients who completed ≧1 (n=64) includes those patients who only completed 1 cycle+the 43 who completed ≧2 cycles of treatment. […] However, the patients not completing cycle lwere more likely to have the angioimmunoblastic subtype (20% vs 6%). Patients in each subgroup received a median of 3 prior treatment regimens.

[2] = 15 patients with CHOP as only prior therapy
[3] = individual responders after first-line CHOP, central review, most values censored
[4] = other patients in the study (n=94)
[5] = second-line after CHOP, N=15, central review
[6] = second-line after CHOP, N=15, investigator
[7] = second-line after CHOP, N=15, investigator, Kaplan-Meier
[8] = second-line after CHOP, N=15, investigator, Kaplan-Meier, listed as pralatrexate

C#CCC(Cc1cnc2nc(N)nc(N)c2n1)c1ccc(C(=O)N[C@@H](CCC(=O)O)C(=O)O)cc1 (mixture of isomers) [Pralatrexate, (2S)-2-[[4-[(1RS)-1-[(2,4-diaminopteridin-6-yl)methyl]but-3-ynyl]benzoyl]amino]pentanedioic acid]
CR/CRu by investigators assessment (relapsed/refractory PTCL; [2]): 33% | Complete responses [CR] by independent central review (relapsed/refractory PTCL; [2]): 20% | ORR by investigator assessment (relapsed/refractory PTCL; [2]): 40% | Overall response rate (ORR) by independent central review (relapsed/refractory PTCL; [2]): 47% | Duration of Response (relapsed/refractory PTCL; individual responder after first-line CHOP, central review, censored (initiation of other subsequent therapy)): 1 day^a | Duration of Response (months) (relapsed/refractory PTCL; [3]): 10.1^a months and 9.7^b months and 8.3^b months and 6.5^a months and 3.3^c months and 2.3^c months | PFS (months) (relapsed/refractory PTCL; [3]): 14.8^a months and 17.8^b months and 15.5^b months and 8.1 months and 4.6^c months and 3.4^c months and 4.6^a months | Duration of Response (months) (relapsed/refractory PTCL; individual responders after first-line CHOP, central review, most values censored, listed as pralatrexate): 2.3 months and 3.3 months | Patients still alive at the time of last contact (relapsed/refractory PTCL; of the 15 patients): 73% | Patients who proceeded to a stem cell transplant upon attaining a response to pralatrexate (relapsed/refractory PTCL; of the 15 patients treated only with CHOP): Two | CR/CRu by investigators assessment (relapsed/refractory PTCL; other patients (n=94)): 16% | Median PFS according to central review (relapsed/refractory PTCL; other patients (n=94)): 3.1 months | Median PFS per investigator assessment (relapsed/refractory PTCL; other patients (n=94)): 3.5 months | Median duration of response per investigator assessment (relapsed/refractory PTCL; other patients (n=94)): 6.7 months | ORR by investigators assessment (relapsed/refractory PTCL; other patients (n=94)): 39% | CR/CRu by independent central review (relapsed/refractory PTCL; [4]): 10% | ORR by independent central review (relapsed/refractory PTCL; [4]): 27% | 12-month OS estimate (relapsed/refractory PTCL; second-line after CHOP, N=15): 73% | OS, Median, months (95% CI) (relapsed/refractory PTCL; second-line after CHOP, N=15, NE = not able to estimate): not able to be estimated | PFS, Range (relapsed/refractory PTCL; [5]): 0.7-17.8^c months | Tumor Response: CRu (relapsed/refractory PTCL; [5]): 0 (0) n (%) | Tumor Response: Not evaluable (relapsed/refractory PTCL; [5]): 0 (0) n (%) | Tumor Response: ORR (CR + CRu + PR) (relapsed/refractory PTCL; [5]): 7 (47) n (%) | Tumor response: CR (relapsed/refractory PTCL; [5]): 3 (20) n (%) | Tumor response: PD (relapsed/refractory PTCL; [5]): 4 (27) n (%) | Tumor response: PR (relapsed/refractory PTCL; [5]): 4 (27) n (%) | Tumor response: SD (relapsed/refractory PTCL; [5]): 4 (27) n (%) | PFS, Median, months (95% CI) (relapsed/refractory PTCL; second-line after CHOP, N=15, central review, Kaplan-Meier): 8.1 (4.6, NE) months | PFS, Median, months (95% CI) (relapsed/refractory PTCL; second-line after CHOP, N=15, central review, Kaplan-Meier, listed as pralatrexate): 8.1 months | Duration of response, Median, months (95% CI) (relapsed/refractory PTCL; second-line after CHOP, N=15, central review, NE = not able to estimate, insufficient PD events): not reached; also recorded: not yet estimable | Tumor Response: CRu (relapsed/refractory PTCL; [6]): 1 (7) n (%) | Tumor Response: Not evaluable (relapsed/refractory PTCL; [6]): 1 (7)^a n (%) | Tumor Response: ORR (CR + CRu + PR) (relapsed/refractory PTCL; [6]): 6 (40) n (%) | Tumor response: CR (relapsed/refractory PTCL; [6]): 4 (27) n (%) | Tumor response: PD (relapsed/refractory PTCL; [6]): 4 (27) n (%) | Tumor response: PR (relapsed/refractory PTCL; [6]): 1 (7) n (%) | Tumor response: SD (relapsed/refractory PTCL; [6]): 4 (27) n (%) | Duration of response, Median, months (95% CI) (relapsed/refractory PTCL; [7]): 12.5 (10.8, NE) months | PFS, Median, months (95% CI) (relapsed/refractory PTCL; [7]): 7.4 (2.3, 15.0) months | Duration of response, Median, months (95% CI) (relapsed/refractory PTCL; [8]): 12.5 months | PFS, Median, months (95% CI) (relapsed/refractory PTCL; [8]): 7.4 months | OS, Range (relapsed/refractory PTCL; second-line after CHOP, N=15, survival follow-up ended at 2 years): 1.5-24.0^d months | Current disease-free period (duration of response to pralatrexate + time since stem cell transplant) (relapsed/refractory PTCL; the 2 patients who proceeded to stem cell transplant): 20.9 months and 27.2 months and 20.1 months and 21.7 months | Responders who responded by their first assessment at 7 weeks (end of cycle 1) ([1]; % of responders): 63% | CR/CRu (complete response/complete response unconfirmed) by independent central review ([1]; all 109 patients): 11% | CR/CRu by investigator assessment ([1]; all 109 patients): 18% | Median duration of PFS by central review ([1]; all 109 patients): 3.5 months | Median duration of PFS by investigator assessment ([1]; all 109 patients): 4.0 months | Median duration of response by central review ([1]; all 109 patients): 10.1 months | Median duration of response by investigator assessment ([1]; all 109 patients): 8.1 months | ORR by investigator assessment ([1]; all 109 patients): 39% | Objective response rate (ORR) by independent central review using International Workshop Criteria ([1]; all 109 patients): 29%
